Where “and” joins values, the source holds several entries; their conditions need not be identical. Equal values may be shown once.
Columns and labels:
Type in all cases: cell-based, human
PC-9 cells = experiment: Annexin V/PI flow cytometry for cell apoptosis, PC-9; set-up: key to Apoptosis (sum of Q2 and Q3) / Apoptosis, Average: % apoptotic cells (Annexin V/PI flow cytometry); conditions: for Apoptosis, Average / Apoptosis (sum of Q2 and Q3) / Lymphocytes/Q2: FITC-A+ , PI-A+ Freq. of Parent / Lymphocytes/Q3: FITC-A+ , PI-A- Freq. of Parent: PC-9, 48h; for Apoptosis, Average: average of three repeats; for Apoptosis (sum of Q2 and Q3): single repeats (Repeat 1-3); for Lymphocytes/Q2: FITC-A+ , PI-A+ Freq. of Parent / Lymphocytes/Q3: FITC-A+ , PI-A- Freq. of Parent: single runs
Protocol: (§1) To establish whether the antiproliferative efficacy is associated with apoptosis, PC-9 and H460 cells were treated with compound e4 or e12 of various concentrations (4, 8 and 12 μM) for 48 h, and then assessed with flow cytometry.
(§2) Cell-apoptosis analysis was carried out by flow cytometry using the Annexin V/PI apoptosis kit according to the manufacturer’s manual. Briefly, PC-9 or H460 (3 × 10^4–5 × 10^4/well) cells were seeded in 12-well plates for 24 h, and then treated with 0.1% DMSO (as control) or various concentrations of compound e4 or e12 for 48 h, respectively. Cells were harvested, washed with PBS, and then incubated with 100ul of 1X Annexin V binding buffer containing 1 μl PI and 1 μl FITC Annexin V for 15 min at RT in the dark. 200 µl of 1X binding buffer were added to each tube for flow cytometry analysis (BD LSRFortessa™ Flow Cytometer). The percentages of apoptotic cells were analyzed using FlowJo soft.

H460 cells = experiment: Annexin V/PI flow cytometry for cell apoptosis, H460; conditions: for Percentage of apoptosis, Average: average of three runs; for Q2+Q3 / Lymphocytes/Q2: FITC-A+ , PI-A+ Freq. of Parent / Lymphocytes/Q3: FITC-A+ , PI-A- Freq. of Parent / Percentage of apoptosis: single runs; for Q2+Q3: given as fraction; for Lymphocytes/Q2: FITC-A+ , PI-A+ Freq. of Parent / Lymphocytes/Q3: FITC-A+ , PI-A- Freq. of Parent / Percentage of apoptosis: time as in file name (24h, 48h or not given)
Protocol: as §1, §2

[1] = test system: CCND1, CCNA2, CCNB1, CDK2, CDK6 RNA in PC-9 cells; experiment: qPCR assay for cell cycle-related gene analysis; conditions: for CCNB relative mRNA expression (2^-ddCt vs NC, normalised to beta-Actin) / CCND1 relative mRNA expression (2^-ddCt vs NC, normalised to beta-Actin) / CDK6 relative mRNA expression (2^-ddCt vs NC, normalised to beta-Actin): qPCR SYBR_GREEN, NC = 1; for RQ: endogenous control b-Actin, reference sample NC
Excerpt: To better understand the mechanisms underlying cell cycle arrest induced by e4 and e12 in NSCLC cells, we assessed the expression levels of a few genes involved in cell cycle regulation, including cyclin D1 (CCND1), cyclin A2 (CCNA2), cyclin B1 (CCNB1), cyclin-dependent kinase 2 (CDK2), and cyclin-dependent kinase 6 (CDK6) in PC-9 by qPCR. […] CCNA2 is known to bind and activate CDK2 and thus promotes the transition through G1/S and G2/M. CCNB1 and CCND1 are essential to mitosis and G1/S transition respectively. While G2/M arrest weas not detected, the changes in these gene expression profiles interpret the G1/S arrests in PC-9 cells treated with e4 and e12. PC-9 cells exposed to the compounds for various periods should be examined further.
Total RNA of cells was extracted and cDNA was synthesized. The primers for the target products were designed as in Table 3.

[2] = 4uM, Repeat 1-3, relative to NC = 1
[3] = 8uM, Repeat 1-3, relative to NC = 1
[4] = 12uM, Repeat 1-3, relative to NC = 1

COCCOc1cc2ncnc(Nc3cccc(-c4cn(-c5ccc(C)cc5)nn4)c3)c2cc1OCCOC [e12, [6,7-Bis-(2-methoxy-ethoxy)-quinazolin-4-yl]-[3-(1-p-tolyl-1H-[1,2,3]triazol-4-yl)-phenyl]-amine]
cell apoptosis (flow cytometry) (PC-9 cells; PC-9, 4, 8 and 12 μM, 48 h): significant cell apoptosis
Apoptosis, Average (PC-9 cells; 4uM): 13.94
Apoptosis (sum of Q2 and Q3) (PC-9 cells; 4uM): 15.01 and 16.36 and 10.45
Lymphocytes/Q2: FITC-A+ , PI-A+ Freq. of Parent (PC-9 cells; 4uM): 14.50% and 15.4% and 9.81%
Lymphocytes/Q3: FITC-A+ , PI-A- Freq. of Parent (PC-9 cells; 4uM): 0.51% and 0.96% and 0.64%
Apoptosis, Average (PC-9 cells; 8uM): 12.92
Apoptosis (sum of Q2 and Q3) (PC-9 cells; 8uM): 13.98 and 12.64 and 12.13
Lymphocytes/Q2: FITC-A+ , PI-A+ Freq. of Parent (PC-9 cells; 8uM): 12.60% and 10.6% and 10.7%
Lymphocytes/Q3: FITC-A+ , PI-A- Freq. of Parent (PC-9 cells; 8uM): 1.38% and 2.04% and 1.43%
Apoptosis, Average (PC-9 cells; 12uM): 29.21
Apoptosis (sum of Q2 and Q3) (PC-9 cells; 12uM): 24.77 and 29.39 and 33.48
Lymphocytes/Q2: FITC-A+ , PI-A+ Freq. of Parent (PC-9 cells; 12uM): 20.50% and 25.9% and 29.5%
Lymphocytes/Q3: FITC-A+ , PI-A- Freq. of Parent (PC-9 cells; 12uM): 4.27% and 3.49% and 3.98%
Percentage of apoptosis, Average (H460 cells; H460, 4uM): 14.68%
Q2+Q3 (H460 cells; H460, 4uM): 0.149
Lymphocytes/Q2: FITC-A+ , PI-A+ Freq. of Parent (H460 cells; H460, 4uM): 8.07% and 10.30% and 7.57%
Lymphocytes/Q3: FITC-A+ , PI-A- Freq. of Parent (H460 cells; H460, 4uM): 6.83% and 3.75% and 7.52%
Percentage of apoptosis (H460 cells; H460, 4uM): 14.9% and 14.05% and 15.09%
Percentage of apoptosis, Average (H460 cells; H460, 8uM): 16.0567%
Q2+Q3 (H460 cells; H460, 8uM): 0.1436
Lymphocytes/Q2: FITC-A+ , PI-A+ Freq. of Parent (H460 cells; H460, 8uM): 7.09% and 10.30% and 10.90%
Lymphocytes/Q3: FITC-A+ , PI-A- Freq. of Parent (H460 cells; H460, 8uM): 7.27% and 6.59% and 6.02%
Percentage of apoptosis (H460 cells; H460, 8uM): 14.36% and 16.89% and 16.92%
Percentage of apoptosis, Average (H460 cells; H460, 12uM): 28.7833%
Q2+Q3 (H460 cells; H460, 12uM): 0.213
Lymphocytes/Q3: FITC-A+ , PI-A- Freq. of Parent (H460 cells; H460, 12uM): 10.9% and 9.22% and 9.03%
Percentage of apoptosis (H460 cells; H460, 12uM): 21.3% and 31.62% and 33.43%
cell apoptosis (flow cytometry) (H460 cells; H460, 4, 8 and 12 μM, 48 h): significant cell apoptosis
CCNB relative mRNA expression (2^-ddCt vs NC, normalised to beta-Actin) ([1]; 4uM): 0.9828
CCND1 relative mRNA expression (2^-ddCt vs NC, normalised to beta-Actin) ([1]; 4uM): 0.7886
CDK6 relative mRNA expression (2^-ddCt vs NC, normalised to beta-Actin) ([1]; 4uM): 0.5928
CCNB relative mRNA expression (2^-ddCt vs NC, normalised to beta-Actin) ([1]; 8uM): 0.8452
CCND1 relative mRNA expression (2^-ddCt vs NC, normalised to beta-Actin) ([1]; 8uM): 0.7649
CDK6 relative mRNA expression (2^-ddCt vs NC, normalised to beta-Actin) ([1]; 8uM): 0.8101
CCNB relative mRNA expression (2^-ddCt vs NC, normalised to beta-Actin) ([1]; 12uM): 0.7825
CCND1 relative mRNA expression (2^-ddCt vs NC, normalised to beta-Actin) ([1]; 12uM): 0.6173
CDK6 relative mRNA expression (2^-ddCt vs NC, normalised to beta-Actin) ([1]; 12uM): 0.676
RQ ([1]; CCNA mRNA, 4uM): 0.8394
RQ ([1]; CCNA mRNA, 8uM): 0.6204
RQ ([1]; CCNA mRNA, 12uM): 0.7362
2^ΔΔCт CCNA [1, 2]: 0.5435 and 0.6447 and 0.8394
2^ΔΔCт CCNA [1, 3]: 0.582 and 0.5272 and 0.6204
2^ΔΔCт CCNA [1, 4]: 0.5914 and 0.5472 and 0.7362
RQ ([1]; CCNB mRNA, 4uM): 1.03
RQ ([1]; CCNB mRNA, 8uM): 0.8431
RQ ([1]; CCNB mRNA, 12uM): 1.0421
2^ΔΔCт CCNB [1, 2]: 0.9828 and 0.8732 and 1.03
2^ΔΔCт CCNB [1, 3]: 0.8452 and 0.8244 and 0.8431
2^ΔΔCт CCNB [1, 4]: 0.7825 and 0.7721 and 1.0421
2^ΔΔCт CCND1 ([1]; CCND1, 4uM, Repeat 1-3, relative to NC = 1): 0.7886 and 0.963 and 1.159
2^ΔΔCт CCND1 ([1]; CCND1, 8uM, Repeat 1-3, relative to NC = 1): 0.7649 and 0.9528 and 0.8372
2^ΔΔCт CCND1 ([1]; CCND1, 12uM, Repeat 1-3, relative to NC = 1): 0.6173 and 0.9545 and 0.694
RQ ([1]; CCND1 mRNA, 4uM): 1.159
RQ ([1]; CCND1 mRNA, 8uM): 0.8372
RQ ([1]; CCND1 mRNA, 12uM): 0.694
2^ΔΔCт CDK2 ([1]; CDK2, 4uM, Repeat 1-3, relative to NC = 1): 0.9262 and 1.002 and 1.127
2^ΔΔCт CDK2 ([1]; CDK2, 8uM, Repeat 1-3, relative to NC = 1): 0.848 and 1.034 and 0.9665
2^ΔΔCт CDK2 ([1]; CDK2, 12uM, Repeat 1-3, relative to NC = 1): 0.7751 and 1.0315 and 0.9502
RQ ([1]; CDK2 mRNA, 4uM): 1.127
RQ ([1]; CDK2 mRNA, 8uM): 0.9665
RQ ([1]; CDK2 mRNA, 12uM): 0.9502
2^ΔΔCт CDK6 ([1]; CDK6, 4uM, Repeat 1-3, relative to NC = 1): 0.5928 and 0.8604 and 0.9896

Source: article PMC8776995 (Frontiers in Chemistry, 2022)
